Results as given in US9856218B2, “Inhibitors of PRMT5 and methods of their use” (Ohio State Innovation Foundation, priority 2013, dated 2018).
Values belong to the compound of their own block, whether it stands above or below them.

How the values were obtained:
[1] = tested on: Mantle cell lymphoma cell line Jeko; test: MTS anti-proliferation assay; type: cell-based
Method: MTS proliferation assays were performed according the CellTiter 96™ Aqueous Cell Proliferation Assay Technical Bulletin (Promega, Madison, Wis.). 5×10^5 cells were plated in each well of a 96-well plate at 37° C. and assayed for proliferation at 24, 48, and 72 hr. Proliferation signal at 50% of control was used as IC50 for growth.
(§1) Following the synthesis of 14 compounds, the anti-proliferation and pro-apoptotic activities of those compounds was evaluated in Mantle cell lymphoma cell line Jeko. Replicate cultures of Jeko were incubated in DMSO and the compounds for 24, 48 and 72 hours. FITC-Annexin V-PI stained flow cytometry was used to detect the apoptotic population of cells (Table 4).

[2] = tested on: Mantle cell lymphoma cell line Jeko; test: Induction of apoptosis, FITC-Annexin V-PI flow cytometry; type: cell-based
Method: Analysis by flow cytometry. Cell viability was also measured by flow cytometry at 24 and 48 hr using annexin-V-FITC and propidium iodide (PI) according to the manufacturer's instructions (BD Biosciences).
as §1

[3] = target: T1, recombinant human PRMT5/MEP50 enzyme (Homo sapiens, UniProt O14744); test: Epigenase PRMT methyltransferase (type II-specific) activity/inhibition assay kit; type: biochemical; details: 25 ng recombinant human PRMT5/MEP50 per reaction; read-out: Inhibition of PRMT5 mediated H4R3 methylation (IC50)
T1 construct: purchased BPS Bioscience
Method: The inhibition of PRMT5 mediated H4R3 methylation result was obtained with Epigenase™ PRMT methyltransferase (type II-specific) activity/inhibition assay kit. 25 ng recombinant human PRMT5/MEP50 enzyme (purchased from BPS Bioscience) was used in each reaction.

HNSCC tumor cells = test: Proliferation of HNSCC tumor cells; type: cell-based; details: FIG. 58
[4] = In vivo pharmacokinetics, plasma concentration; design: species or system Mouse; details: mouse, in vivo
Excerpt: Pharmacokinetic data of compounds HLCL-7, HLCL-61, and HLCL-66 taken from an in vivo study is illustrated in Table 10. […]

[5] = 24 hr Quick MTD test, one mouse for each dose; type: in vivo
Method: (§2) Controlled shRNA depletion was evaluated in a murine lymphoma model (Eμ-BRD2 (Chung, J., et al. (2013) J. Biological Chemistry 288, 35534-35547)) and human xenograft model of glioblastoma (Yan, F., et al (2014) Cancer Research In Press). Referring to FIG. 62A, controlled expression of a PRMT5 shRNA (solid line) but not control shRNA (dashed line) leads to 100% survival of mice engrafted primary DLBCL tumor cells. […] The maximum tolerated dose (MTD, single dose) was identified at 50 mg/kg (see Table 11 below). A sub-toxic dose (25 mg/kg) was used to treat FcMCL mice. Control mice developed peripheral blood and lymph node tumor burden starting day 20 post-engraftment.

[6] = MTD study, four mice each dose; type: in vivo; details: mouse, in vivo, ip
Method: as §2

OG2 cells = test: Viability/apoptosis assay alone and in combination with temozolomide; type: cell-based; details: in combination with TMZ, FIG. 13
Excerpt: OG2 cells are tumor cells derived from glioblastoma primary tumors.

multiple cell lines = test: Proliferation of multiple cell lines (FIG. 59); type: cell-based; details: FIG. 59A-E
Method: Proliferation of multiple cell lines was evaluated for CMPD 5, CMPD 7, HLCL61, HLCL-65, and HLCL-66 (FIG. 59A-E).

CAL-27 cell line = test: Migration scratch assay; type: cell-based; details: CAL-27, 16 h and 24 h
Method: Referring to FIG. 60, PRMT5 and squamous cell carcinoma migration in response to HLCL-66 is illustrated. Migration was performed as previously described (Nowicki, M. O., et al. (2008) Neuro. Oncol. 10, 690-699). Briefly, a migration scratch assay was performed with CAL-27 cell line treated with HLCL-66 for 0, 16, and 24 hours.

T1 sequence (O14744 2-637 limits assumed): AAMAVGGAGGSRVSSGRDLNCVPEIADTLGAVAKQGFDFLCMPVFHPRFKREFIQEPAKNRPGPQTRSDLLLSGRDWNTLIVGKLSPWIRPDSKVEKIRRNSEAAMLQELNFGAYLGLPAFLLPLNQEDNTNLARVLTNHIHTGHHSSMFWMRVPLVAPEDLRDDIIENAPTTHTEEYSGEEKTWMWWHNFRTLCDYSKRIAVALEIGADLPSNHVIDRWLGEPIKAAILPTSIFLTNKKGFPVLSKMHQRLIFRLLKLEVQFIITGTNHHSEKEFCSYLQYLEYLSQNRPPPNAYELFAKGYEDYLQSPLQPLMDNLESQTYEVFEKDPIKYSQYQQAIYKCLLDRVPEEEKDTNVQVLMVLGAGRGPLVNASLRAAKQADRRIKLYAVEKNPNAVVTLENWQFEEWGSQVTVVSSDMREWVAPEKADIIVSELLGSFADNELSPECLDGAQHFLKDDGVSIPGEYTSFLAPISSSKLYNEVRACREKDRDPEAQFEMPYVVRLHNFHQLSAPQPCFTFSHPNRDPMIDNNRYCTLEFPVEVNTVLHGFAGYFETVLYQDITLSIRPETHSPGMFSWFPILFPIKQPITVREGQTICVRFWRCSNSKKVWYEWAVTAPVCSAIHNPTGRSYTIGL
T1 sequence (Q9BQA1 2-342 partner limits assumed): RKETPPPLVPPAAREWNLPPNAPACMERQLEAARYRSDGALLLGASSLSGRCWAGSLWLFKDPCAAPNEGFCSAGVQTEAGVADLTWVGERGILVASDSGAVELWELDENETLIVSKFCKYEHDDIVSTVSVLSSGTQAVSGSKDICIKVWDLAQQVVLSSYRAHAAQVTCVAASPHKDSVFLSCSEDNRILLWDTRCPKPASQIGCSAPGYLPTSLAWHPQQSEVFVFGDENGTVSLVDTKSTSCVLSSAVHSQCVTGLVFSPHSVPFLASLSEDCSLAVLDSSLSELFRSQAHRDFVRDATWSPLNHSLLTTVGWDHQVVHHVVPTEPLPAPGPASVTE

SMILES: CCn1c2ccccc2c2cc(NC(=N)Nc3ccc(S(C)(=O)=O)cc3)ccc21 [HLCL-7]
IC50 ([1]; 24 h incubation): 32 µM | IC50 ([1]; 48 h incubation): 26 µM | IC50 ([1]; 72 h incubation): 13 µM | EC50 ([2]; 24 h): 32 µM | EC50 ([2]; 48 h): 26 µM | IC50 [3]: 7 µM | proliferation of HNSCC tumor cells (HNSCC tumor cells): inhibit proliferation in a dose-dependent manner | concentration at 0.08 h ([4]; ip, 25 mg/kg): 7.57 µM | concentration at 0.17 h ([4]; ip, 25 mg/kg): 886 nM | concentration at 0.33 h ([4]; ip, 25 mg/kg): 7.54 µM | concentration at 0.5 h ([4]; ip, 25 mg/kg): 7.48 µM | concentration at 1 h ([4]; ip, 25 mg/kg): 4910 nM | concentration at 2 h ([4]; ip, 25 mg/kg): 7.68 µM | concentration at 4 h ([4]; ip, 25 mg/kg): 4130 nM | concentration at 6 h ([4]; ip, 25 mg/kg): 2540 nM | concentration at 8 h ([4]; ip, 25 mg/kg): 2790 nM | concentration at 24 h ([4]; ip, 25 mg/kg): 1.35 nM | concentration at 0.08 h ([4]; iv, 5 mg/kg): 3.24 µM | concentration at 0.17 h ([4]; iv, 5 mg/kg): 3070 nM | concentration at 0.33 h ([4]; iv, 5 mg/kg): 1.5 µM | concentration at 0.5 h ([4]; iv, 5 mg/kg): 0.911 µM | concentration at 1 h ([4]; iv, 5 mg/kg): 601 nM | concentration at 2 h ([4]; iv, 5 mg/kg): 0.507 µM | concentration at 4 h ([4]; iv, 5 mg/kg): 200 nM | concentration at 6 h ([4]; iv, 5 mg/kg): 76.2 nM | concentration at 8 h ([4]; iv, 5 mg/kg): 77.1 nM | concentration at 24 h ([4]; iv, 5 mg/kg): 1.38 nM | survival after dosing ([5]; IV-2.5 mg/kg, one mouse): Alive 24 hr after | survival after dosing ([5]; mouse, in vivo, ip, 50 mg/kg, 24 h): Alive 24 hr after | survival after dosing ([5]; mouse, in vivo, ip, 100 mg/kg, 24 h): Dead within 1 hr after | survival after dosing ([5]; mouse, in vivo, ip, 200 mg/kg, 24 h): Dead within 1 hr after | survival after dosing ([5]; mouse, in vivo, iv, 5 mg/kg, 24 h): Alive 24 hr after | clinical signs after dosing (slow moving) ([5]; mouse, in vivo, iv, 10 mg/kg): dosing but slow | survival after dosing ([5]; mouse, in vivo, iv, 10 mg/kg, 24 h): Alive 24 hr after | survival after dosing ([5]; mouse, in vivo, iv, 20 mg/kg): Dead instantly after | survival 24 hr after dosing ([6]; 5 mg/kg, 24 h): Alive 24 hr after | condition within 1 hr after dosing (alive but slow moving) ([6]; 50 mg/kg): Alive within 1 hr after | mice lethargic and slow moving 24 hr after dosing ([6]; 50 mg/kg, 24 h): after dosing, 1 out 4 | survival 24 hr after dosing ([6]; 50 mg/kg, 24 h): moving. Alive 24 hr

IC50 ([1]; 24 h incubation): 1.9 µM | IC50 ([1]; 48 h incubation): 0.4 µM | IC50 ([1]; 72 h incubation): 0.2 µM | EC50 ([2]; 24 h): 1.4 µM | EC50 ([2]; 48 h): 0.5 µM | IC50 [3]: 26 µM
SMILES: CCn1c2ccccc2c2cc(/C=C/C(=O)c3ccccc3OC)ccc21 [HLCL-66]
induction of apoptosis in combination (OG2 cells): synergistic | potency, proliferation of multiple cell lines (multiple cell lines): low micromolar range | gap closure (migration) (CAL-27 cell line): affected in a dose-response fashion
